According to patent publication US11661426B2, “Imidazole-containing inhibitors of ALK2 kinase” (BioCryst Pharmaceuticals, Inc., priority 2017, dated 2023):

These compounds were tested against ALK2 (Homo sapiens (Human), UniProt Q04771) (assay: ALK2 inhibition, LanthaScreen Eu Kinase Binding Assay (ThermoFisher Scientific / Life Technologies)). Conditions: read-out: Measured Ki (IC50) Value for Compounds: IC50.
ALK2, sequence (Q04771 21-509): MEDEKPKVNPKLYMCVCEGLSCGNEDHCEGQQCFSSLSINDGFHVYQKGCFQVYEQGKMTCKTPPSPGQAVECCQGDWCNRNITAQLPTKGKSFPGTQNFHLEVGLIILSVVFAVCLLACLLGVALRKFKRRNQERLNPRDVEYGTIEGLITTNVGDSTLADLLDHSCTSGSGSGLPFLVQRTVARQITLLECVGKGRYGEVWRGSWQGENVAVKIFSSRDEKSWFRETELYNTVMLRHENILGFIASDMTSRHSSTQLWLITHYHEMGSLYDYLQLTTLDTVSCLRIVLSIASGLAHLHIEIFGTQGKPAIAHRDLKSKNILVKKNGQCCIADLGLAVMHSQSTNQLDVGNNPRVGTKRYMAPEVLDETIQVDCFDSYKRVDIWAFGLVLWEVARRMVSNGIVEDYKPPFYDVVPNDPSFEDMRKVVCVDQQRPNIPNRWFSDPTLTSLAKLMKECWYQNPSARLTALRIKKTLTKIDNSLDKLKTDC
Procedure: Biochemical assays to measure the inhibitory effects of the compounds were performed by ThermoFisher Scientific (Life Technologies). ALK2 inhibition was tested using LanthaScreen™ Eu Kinase Binding Assay screening protocol.
Work on COc1cc(OC)cc(-n2cnc(Nc3nc(N4CCC[C@H]4CO)nn4cccc34)c2)c1 [Compound 72c, (S)-(1-(4-((1-(3,5-dimethoxyphenyl)-1H-imidazol-4-yl)amino)pyrrolo[2,1-f][1,2,4]triazin-2-yl)pyrrolidin-2-yl)methanol] yielded an IC50 of under 100 nM.
For COc1ccc(-n2cnc(Nc3nc(N4CCC[C@H]4CO)nn4cccc34)c2)cc1OC [Compound 73c, (S)-(1-(4-((1-(3,4-dimethoxyphenyl)-1H-imidazol-4-yl)amino)pyrrolo[2,1-f][1,2,4]triazin-2-yl)pyrrolidin-2-yl)methanol], the IC50 was under 100 nM.
Compound c1ccc(C2CCCN2c2nc(Nc3cn(-c4cc[nH]n4)cn3)c3cccn3n2)nc1 (stereo not drawn) [Compound 74a, N-(1-(1H-pyrazol-3-yl)-1H-imidazol-4-yl)-2-(2-(pyridin-2-yl)pyrrolidin-1-yl)pyrrolo[2,1-f][1,2,4]triazin-4-amine] has an IC50 of over 1000 nM.
Work on COc1cc(-n2cnc(Nc3nc(N4CCC[C@H]4CO)nc4ccsc34)c2)cc(OC)c1OC [Compound 75b, (S)-(1-(4-((1-(3,4,5-trimethoxyphenyl)-1H-imidazol-4-yl)amino)thieno[3,2-d]pyrimidin-2-yl)pyrrolidin-2-yl)methanol] yielded an IC50 of under 100 nM.
In the case of OC[C@@H]1CCCN1c1nc(Nc2cn(-c3cccc4ncccc34)cn2)c2cccn2n1 [Compound 76c, (S)-(1-(4-((1-(quinolin-5-yl)-1H-imidazol-4-yl)amino)pyrrolo[2,1-f][1,2,4]triazin-2-yl)pyrrolidin-2-yl)methanol], the IC50 is reported as under 100 nM.
For OCc1cc2nc(N3CCC[C@H]3CO)nc(Nc3cn(-c4ccccc4)cn3)c2s1 [Compound 78f, (S)-(1-(6-(hydroxymethyl)-4-((1-phenyl-1H-imidazol-4-yl)amino)thieno[3,2-d]pyrimidin-2-yl)pyrrolidin-2-yl)methanol], the IC50 was under 100 nM.
In the case of CCCC=Cc1ccc2c(Nc3cn(-c4cc(OC)c(OC)c(OC)c4)cn3)nc(N3CCC[C@H]3CO)nn12 [Compound 79d, (S)-(1-(7-(pent-1-en-1-yl)-4-((1-(3,4,5-trimethoxyphenyl)-1H-imidazol-4-yl)amino)pyrrolo[2,1-f][1,2,4]triazin-2-yl)pyrrolidin-2-yl)methanol], the IC50 is reported as under 100 nM.
Work on CC(C)(C)OC(=O)N1CC=C(c2ccc3c(Nc4cn(-c5ccccc5)cn4)nc(N4CCC[C@H]4CO)nn23)CC1 [Compound 80a, (S)-tert-butyl 4-(2-(2-(hydroxymethyl)pyrrolidin-1-yl)-4-(1-phenyl-1H-imidazol-4-ylamino)pyrrolo[1,2-f][1,2,4]triazin-7-yl)-5,6-dihydropyridine-1(2H)-carboxylate] yielded an IC50 of 100 to 1000 nM.
Cn1cnc(-n2cnc(Nc3nc(N4CCCC4c4ccccn4)nn4cccc34)c2)c1 (stereo not drawn) [Compound 81c, N-(1′-methyl-1′H-[1,4′-biimidazol]-4-yl)-2-(2-(pyridin-2-yl)pyrrolidin-1-yl)pyrrolo[2,1-f][1,2,4]triazin-4-amine] showed an IC50 of over 1000 nM.
Cn1cnc(-n2cnc(Nc3nc(N4CCC[C@H]4CO)nn4cccc34)c2)c1 [Compound 82a, (S)-(1-(4-((1′-methyl-1′H-[1,4′-biimidazol]-4-yl)amino)pyrrolo[2,1-f][1,2,4]triazin-2-yl)pyrrolidin-2-yl)methanol] was tested, and the IC50 was under 100 nM.
Compound OC[C@@H]1CCCN1c1cc(F)cc(-n2cnc(Nc3nc(N4CCC[C@H]4CO)nn4cccc34)c2)c1 [Compound 83c, ((S)-1-(4-((1-(3-fluoro-5-((S)-2-(hydroxymethyl)pyrrolidin-1-yl)phenyl)-1H-imidazol-4-yl)amino)pyrrolo[2,1-f][1,2,4]triazin-2-yl)pyrrolidin-2-yl)methanol] has an IC50 of under 100 nM.
COc1cc(-n2cnc(Nc3nc(N4CCC[C@H]4CO)nc4sccc34)c2)cc(OC)c1OC [Compound 84b, (S)-(1-(4-((1-(3,4,5-trimethoxyphenyl)-1H-imidazol-4-yl)amino)thieno[2,3-d]pyrimidin-2-yl)pyrrolidin-2-yl)methanol] was tested, and the IC50 was under 100 nM.
Compound COc1cc(-n2cnc(Nc3nc(N4CCC[C@H]4CO)nn4c(Br)ccc34)c2)cc(OC)c1OC [Compound 85b, (S)-(1-(7-bromo-4-(1-(3,4,5-trimethoxyphenyl)-1H-imidazol-4-ylamino)pyrrolo[1,2-f][1,2,4]triazin-2-yl)pyrrolidin-2-yl)methanol] has an IC50 of under 100 nM.
COc1cc(-n2cnc(Nc3nc(N4CCC[C@H]4CO)nc4ccccc34)c2)cc(OC)c1OC [Compound 86b, (S)-(1-(4-((1-(3,4,5-trimethoxyphenyl)-1H-imidazol-4-yl)amino)quinazolin-2-yl)pyrrolidin-2-yl)methanol] showed an IC50 of under 100 nM.
With OC[C@@H]1CCCN1c1nc(Nc2cn(-c3ccccc3)cn2)c2scc(Br)c2n1 [Compound 87c, (S)-(1-(7-bromo-4-((1-phenyl-1H-imidazol-4-yl)amino)thieno[3,2-d]pyrimidin-2-yl)pyrrolidin-2-yl)methanol] the IC50 was 100 to 1000 nM.
COc1ccc(-c2nc(Nc3cn(-c4cc(OC)c(OC)c(OC)c4)cn3)c3cccn3n2)cc1 [Compound 88a, 2-(4-methoxyphenyl)-N-(1-(3,4,5-trimethoxyphenyl)-1H-imidazol-4-yl)pyrrolo[2,1-f][1,2,4]triazin-4-amine] gave an IC50 of under 100 nM.
For COc1ccc(-c2csc3c(Nc4cn(-c5ccccc5)cn4)nc(N4CCC[C@H]4CO)nc23)cc1 [Compound 89a, (S)-(1-(7-(4-methoxyphenyl)-4-(1-phenyl-1H-imidazol-4-ylamino)thieno[3,2-d]pyrimidin-2-yl)pyrrolidin-2-yl)methanol], the IC50 was 100 to 1000 nM.
For COc1ccc(-c2ccc3c(Nc4cn(-c5cc(OC)c(OC)c(OC)c5)cn4)nc(N4CCC[C@H]4CO)nn23)cc1 [Compound 90a, (S)-(1-(7-(4-methoxyphenyl)-4-(1-(3,4,5-trimethoxyphenyl)-1H-imidazol-4-ylamino)pyrrolo[1,2-f][1,2,4]triazin-2-yl)pyrrolidin-2-yl)methanol], the IC50 was under 100 nM.
COc1cc(-n2cnc(Nc3nc(N4CCC[C@H]4C(N)=O)nn4cccc34)c2)cc(OC)c1OC [Compound 91a, (S)-1-(4-(1-(3,4,5-trimethoxyphenyl)-1H-imidazol-4-ylamino)pyrrolo[1,2-f][1,2,4]triazin-2-yl)pyrrolidine-2-carboxamide] showed an IC50 of under 100 nM.
COc1cc(-n2cnc(Nc3nc(N4CCC[C@H]4CO)nc4sc(C(=O)OCC(C)C)cc34)c2)cc(OC)c1OC [Compound 92d, (S)-isobutyl 2-(2-(hydroxymethyl)pyrrolidin-1-yl)-4-((1-(3,4,5-trimethoxyphenyl)-1H-imidazol-4-yl)amino)thieno[2,3-d]pyrimidine-6-carboxylate] was tested, and the IC50 was 100 to 1000 nM.
In the case of NC(=O)c1ccc(-n2cnc(Nc3nc(N4CCC[C@H]4CO)nn4cccc34)c2)cc1 [Compound 93c, (S)-4-(4-(2-(2-(hydroxymethyl)pyrrolidin-1-yl)pyrrolo[1,2-f][1,2,4]triazin-4-ylamino)-1H-imidazol-1-yl)benzamide], the IC50 is reported as under 100 nM.
NC(=O)c1cccc(-n2cnc(Nc3nc(N4CCC[C@H]4CO)nn4cccc34)c2)c1 [Compound 94c, (S)-3-(4-(2-(2-(hydroxymethyl)pyrrolidin-1-yl)pyrrolo[1,2-f][1,2,4]triazin-4-ylamino)-1H-imidazol-1-yl)benzamide] gave an IC50 of under 100 nM.
For CC(=O)c1ccc(-n2cnc(Nc3nc(N4CCC[C@H]4CO)nn4cccc34)c2)cc1 [Compound 95c, (S)-1-(4-(4-(2-(2-(hydroxymethyl)pyrrolidin-1-yl)pyrrolo[1,2-f][1,2,4]triazin-4-ylamino)-1H-imidazol-1-yl)phenyl)ethanone], the IC50 was under 100 nM.
For COc1cc(-n2cnc(Nc3nc(N4CCC[C@H]4CO)c4cccn4n3)c2)cc(OC)c1OC [Compound 96b, (S)-(1-(2-((1-(3,4,5-trimethoxyphenyl)-1H-imidazol-4-yl)amino)pyrrolo[2,1-f][1,2,4]triazin-4-yl)pyrrolidin-2-yl)methanol], the IC50 was under 100 nM.
Work on COc1cc(-n2cnc(Nc3nc(N4CCC[C@H]4CO)nc4sc(CN5CCOCC5)cc34)c2)cc(OC)c1OC [Compound 97d, (S)-(1-(6-(morpholinomethyl)-4-((1-(3,4,5-trimethoxyphenyl)-1H-imidazol-4-yl)amino)thieno[2,3-d]pyrimidin-2-yl)pyrrolidin-2-yl)methanol] yielded an IC50 of under 100 nM.
Compound COc1cc(-n2cnc(Nc3nc(N4CCC[C@H]4CO)nn4c(C5=CCN(C(=O)OC(C)(C)C)CC5)ccc34)c2)cc(OC)c1OC [Compound 98a, (S)-tert-butyl 4-(2-(2-(hydroxymethyl)pyrrolidin-1-yl)-4-(1-(3,4,5-trimethoxyphenyl)-1H-imidazol-4-ylamino)pyrrolo[1,2-f][1,2,4]triazin-7-yl)-5,6-dihydropyridine-1(2H)-carboxylate] has an IC50 of under 100 nM.
COc1cc(-n2cnc(Nc3nc(N4CCC[C@H]4CO)nn4c(C(C)O)ccc34)c2)cc(OC)c1OC (stereo partly drawn) [Compound 99b, 1-(2-((S)-2-(hydroxymethyl)pyrrolidin-1-yl)-4-((1-(3,4,5-trimethoxyphenyl)-1H-imidazol-4-yl)amino)pyrrolo[2,1-f][1,2,4]triazin-7-yl)ethanol] gave an IC50 of under 100 nM.
COc1cc(-n2cnc(Nc3nc(N4CCC[C@H]4CO)nn4c(CO)ccc34)c2)cc(OC)c1OC [Compound 101c, (S)-(1-(7-(hydroxymethyl)-4-((1-(3,4,5-trimethoxyphenyl)-1H-imidazol-4-yl)amino)pyrrolo[2,1-f][1,2,4]triazin-2-yl)pyrrolidin-2-yl)methanol] gave an IC50 of under 100 nM.
Compound COc1cc(-n2cnc(Nc3nc(N4CCC[C@H]4CO)nc4sc(CN5CCC(O)CC5)cc34)c2)cc(OC)c1OC [Compound 102b, (S)-1-((2-(2-(hydroxymethyl)pyrrolidin-1-yl)-4-((1-(3,4,5-trimethoxyphenyl)-1H-imidazol-4-yl)amino)thieno[2,3-d]pyrimidin-6-yl)methyl)piperidin-4-ol] has an IC50 of under 100 nM.
For COc1cc(-n2cnc(Nc3nc(N4CCC[C@H]4CO)nc4ccoc34)c2)cc(OC)c1OC [Compound 103b, (S)-(1-(4-((1-(3,4,5-trimethoxyphenyl)-1H-imidazol-4-yl)amino)furo[3,2-d]pyrimidin-2-yl)pyrrolidin-2-yl)methanol], the IC50 was under 100 nM.
